Measured values as given in patent publication US7115741B2, “4-thieno[2,3-D]pyrimidin-4-YL piperazine compounds” (priority 2001, dated 2006).

test system: platelet ADP receptors; assay: ARB binding assay (platelet ADP receptor binding, [3H]2-MeS-ADP); design: species or system human; details: relative activities of selected compounds in the ARB binding assay
Experimental: Utilizing the second assay the potency of inhibition of such compounds with respect to [^3H]2-MeS-ADP binding to whole platelets is determined. [^3H]2-MeS-ADP binding experiments are routinely performed with outdated human platelets collected by standard procedures at hospital blood banks. Apyrase-washed outdated platelets are prepared as follows (all steps at room temperature, if not indicated otherwise):
Outdated platelet suspensions are diluted with 1 volume of CGS and platelets pelleted by centrifugation at 1900×g for 45 minutes. Platelet pellets are resuspended at 3–6×10^9 platelets/ml in CGS containing 1 U/ml apyrase (grade V, Sigma, St. Louis, Mo.) and incubated for 15 minutes at 37° C. After centrifugation at 730×g for 20 minutes, pellets are resuspended in Hepes-Tyrode's buffer containing 0.1% BSA (Sigma, St. Louis, Mo.) at a concentration of 6.66×10^8 platelets/ml. Binding experiments are performed after >45 minutes resting of the platelets.
Alternatively, binding experiments are performed with fresh human platelets prepared as described in I.(Inhibition of ADP-Mediated Platelet Aggregation in vitro), except that platelets are resuspended in Hepes-Tyrode's buffer containing 0.1% BSA (Sigma, St. Louis, Mo.) at a concentration of 6.66×10^8 platelets/ml. Very similar results are obtained with fresh and outdated platelets.
A platelet ADP receptor binding assay using the tritiated potent agonist ligand [^3H]2-MeS-ADP (Jantzen, H. M. et al. (1999) Thromb. Hemost. 81:111–117) has been adapted to the 96-well microtiter format. In an assay volume of 0.2 ml Hepes-Tyrode's buffer with 0.1% BSA and 0.6% DMSO, 1×10^8 apyrase-washed platelets are preincubated in 96-well flat bottom microtiter plates for 5 minutes with serial dilutions of test compounds before addition of 1 nM [^3H]2-MeS-ADP ([^3H]2-methylthioadenosine-5′-diphosphate, ammonium salt; specific activity 48–49 Ci/mmole, obtained by custom synthesis from Amersham Life Science, Inc., Arlington Heights, Ill., or NEN Life Science Products, Boston, Mass.). Total binding is determined in the absence of test compounds. Samples for nonspecific binding may contain 10^−5 M unlabelled 2-MeS-ADP (RBI, Natick, Mass.). After incubation for 15 minutes at room temperature, unbound radioligand is separated by rapid filtration and two washes with cold (4–8° C.) Binding Wash Buffer (10 mM Hepes pH 7.4, 138 mM NaCl) using a 96-well cell harvester (Minidisc 96, Skatron Instruments, Sterling, Va.) and 8×12 GF/C glassfiber filtermats (Printed Filtermat A, for 1450 Microbeta, Wallac Inc., Gaithersburg, Md.). The platelet-bound radioactivity on the filtermats is determined in a scintillation counter (Microbeta 1450, Wallac Inc., Gaithersburg, Md.). Specific binding is determined by subtraction of non-specific binding from total binding, and specific binding in the presence of test compounds is expressed as % of specific binding in the absence of test compounds dilutions.

Row | Structure (SMILES) | Relative Activity
1 | CCc1cc2c(N3CCN(C(=O)Cc4ccccc4)CC3)ncnc2s1 [Example 2, 1-[4-(6-ethylthiopheno[3,2-e]pyrimidin-4-yl)piperazinyl]-2-phenylethan-1-one] | +++ (<10 micromolar)
2 | CCc1cc2c(N3CCN(C(=O)CC(F)(F)F)CC3)ncnc2s1 [Example 5, 1-[4-(6-ethylthiopheno[3,2-e]pyrimidin-4-yl)piperazinyl]-3,3,3-trifluoropropan-1-one] | +++ (<10 micromolar)
3 | CCc1cc2c(N3CCN(C(=O)CCC(C)C)CC3)ncnc2s1 [Example 17, 1-[4-(6-ethylthiopheno[3,2-e]pyrimidin-4-yl)piperazinyl]-4-methylpentan-1-one] | +++ (<10 micromolar)
4 | CCc1cc2c(N3CCN(C(=O)C(F)(F)F)CC3)ncnc2s1 [Example 55, 1-[4-(6-ethylthiopheno[3,2-e]pyrimidin-4-yl)piperazinyl]-2,2,2-trifluoroethan-1-one] | +++ (<10 micromolar)
5 | CCc1cc2c(N3CCN(C(=O)C=C(C(F)(F)F)C(F)(F)F)CC3)ncnc2s1 [Example 59, 1-[4-(6-ethylthopheno[3,2-e]pyrimidin-4-yl)pperazinyl]-4,4,4-trifluoro-3-(trifluoromethyl)but-2-en-1-one] | + (>20 micromolar)
6 | CCc1cc2c(N3CCN(C(=O)Cc4ccncc4)CC3)ncnc2s1 [Example 67, 1-[4-(6-ethylthiopheno[3,2-e]pyrimidin-4-yl)piperazinyl]-2-(4-pyridyl)ethan-1-one] | ++ (10–20 micromolar)
7 | CCc1cc2c(N3CCN(C(=O)C(c4ccccc4)c4ccccc4)CC3)ncnc2s1 [Example 70, 1-[4-(6-ethylthiopheno[3,2-e]pyrimidin-4-yl)piperazinyl]-2,2-diphenylethan-1-one] | + (>20 micromolar)
8 | CCc1cc2c(N3CCN(C(=O)c4ccc(-c5ccccc5)cc4)CC3)ncnc2s1 [Example 71, 4-(6-ethylthiopheno[3,2-e]pyrimidin-4-yl)piperazinyl 4-phenylphenyl ketone] | +++ (<10 micromolar)
9 | CC(C)(C)c1cc2c(N3CCN(C(=O)Cc4ccccc4)CC3)ncnc2s1 [Example 106, 1-{4-[6-(tert-butyl)thiopheno[3,2-e]pyrimidin-4-yl]piperazinyl}-2-phenylethan-1-one] | ++ (10–20 micromolar)
10 | O=C(CC(F)(F)F)N1CCN(c2ncnc3sc(-c4ccccc4)cc23)CC1 [Example 111, 3,3,3-trifluoro-1-[4-(6-phenylthiopheno[3,2-e]pyrimidin-4-yl)piperazinyl]propan-1-one] | ++ (10–20 micromolar)
11 | O=C(Cc1ccccc1)N1CCN(c2ncnc3sc(Cc4ccccc4)cc23)CC1 [Example 112, 2-phenyl-1-{4-[6-benzylthiopheno[3,2-e]pyrimidin-4-yl]piperazinyl} ethan-1-one] | +++ (<10 micromolar)
12 | O=C(Cc1ccccc1)N1CCN(c2ncnc3sc(Br)cc23)CC1 [Example 125, 1-[4-(6-bromothiopheno[3,2-e]pyrimidin-4-yl)piperazinyl]-2-phenylethan-1-one] | +++ (<10 micromolar)
13 | C#Cc1cc2c(N3CCN(C(=O)CC(F)(F)F)CC3)ncnc2s1 [Example 135, 1-[4-(6-ethlylylthiopheno[3,2-e]pyrimidin-4-yl)piperazinyl]-3,3,3-trifluoropropan-1-one] | +++ (<10 micromolar)
14 | CCc1cc2c(N3CCN(C(=O)Cc4ccccc4)CC3)nc(C)nc2s1 [Example 153, 1-[4-(6-ethyl-2-methylthiopheno[3,2-e]pyrimidin-4-yl)piperazinyl]-2-phenylethan-1-one] | +++ (<10 micromolar)
15 | CCc1cc2c(N3CCN(C(=O)Cc4ccccc4)CC3)nc(SC)nc2s1 [Example 169, 1-[4-(6-ethyl-2-methylthiothiopheno[3,2-e]pyrimidin-4-yl)piperazinyl]-2-phenylethan-1-one] | +++ (<10 micromolar)
16 | CCc1cc2c(N3CCN(C(=O)Cc4ccccc4)CC3)nc(O)nc2s1 [Example 183, 1-[4-(6-ethyl-2-hydroxythiopheno[3,2-e]pyrimidin-4-yl)piperazinyl]-2-phenylethan-1-one] | + (>20 micromolar)
17 | CCc1cc2c(N3CCCN(C(=O)CCCOn4nnc5ccccc54)CC3)ncnc2s1 [Example 188, 4-benzotriazolyloxy-1-[4-(6-ethylthiopheno[3,2-e]pyrimidin-4-yl)(1,4-diazaperhydroepinyl)]butan-1-one] | +++ (<10 micromolar)
18 | CCc1cc2c(N3CCN(C(=O)Cc4ccccc4)CC3C)ncnc2s1 (stereo not drawn) [Example 193, 1-[4-(6-ethylthiopheno[3,2-e]pyrimidin-4-yl)-3-methylpiperazinyl]-2-phenylethan-1-one] | +++ (<10 micromolar)
19 | CCc1cc2c(N3CCN(C(=O)Cc4ccccc4)C(C)C3)ncnc2s1 (stereo not drawn) [Example 197, 1-[4-(6-ethylthiopheno[3,2-e]pyrimidin-4-yl)-2-methylpiperazinyl]-2-phenylethan-1-one] | ++ (10–20 micromolar)
20 | CCc1cc2c(N3CCN(C(=O)Cc4ccccc4)CC3c3ccccc3)ncnc2s1 (stereo not drawn) [Example 206, 1-[4-(6-ethylthiopheno[3,2-e]pyrimidin-4-yl)-3-phenylpiperazinyl]-2-phenylethan-1-one] | + (>20 micromolar)
21 | CCOC(=O)c1nc(N2CCN(C(=O)Cc3ccccc3)CC2)c2cc(CC)sc2n1 [Example 236, 6-Ethyl-4-(4-phenylacetyl-piperazin-1-yl)-thieno[2,3-d]pyrimidine-2-carboxylic acid ethyl ester] | +++ (<10 micromolar)
22 | CCc1cc2c(N3CCN(C(=O)c4cccc(COn5nnc6ccccc65)c4)CC3)ncnc2s1 [Example 250, [3-(Benzotriazol-1-yloxymethyl)-phenyl]-[4-(6-ethyl-thieno[2,3-d]pyrimidin-4-yl)-piperazin-1-yl]-methanone] | ++ (10–20 micromolar)
23 | CCc1cc2c(N3CCN(C(=O)CN4CCCC(n5nnc6ccccc65)C4)CC3)ncnc2s1 (stereo not drawn) [Example 271, 2-(3-Benzotriazol-1-yl-piperidin-1-yl)-1-[4-(6-ethyl-thieno[2,3-d]pyrimidin-4-yl)-piperazin-1-yl]-ethanone] | ++ (10–20 micromolar)
24 | CCc1cc2c(N3CCN(C(=O)[C@@H]4CCC[C@H](Cn5nnc6ccccc65)C4)CC3)ncnc2s1 [Example 279, (3-Benzotriazol-1-ylmethyl-cyclohexyl)-[4-(6-ethyl-thieno[2,3-d]pyrimidin-4-yl)-piperazin-1-yl]-methanone] | +++ (<10 micromolar)
25 | CCc1cc2c(N3CCN(C(=O)CCCCOc4ccccc4)CC3)ncnc2s1 [Example 305, 1-[4-(6-Ethyl-thieno[2,3-d]pyrimidin-4-yl)-piperazin-1-yl]-5-phenoxy-pentan-1-one] | +++ (<10 micromolar)
26 | CCc1cc2c(N3CCN(C(=O)CCCCC4CCCCC4)CC3)ncnc2s1 [Example 311, 5-Cyclohexyl-1-[4-(6-ethyl-thieno[2,3-d]pyrimidin-4-yl)-piperazin-1-yl]-pentan-1-one] | + (>20 micromolar)
27 | CCc1cc2c(N3CCN(C(=O)CCCCNC(=O)c4ccccc4)CC3)ncnc2s1 [Example 313, N-{5-[4-(6-Ethyl-thieno[2,3-d]pyrimidin-4-yl)-piperazin-1-yl]-5-oxo-pentyl}-benzamide] | ++ (10–20 micromolar)
28 | CCc1cc2c(N3CCN(C(=O)/C=C/c4ccsc4)CC3)ncnc2s1 [Example 320, 1-[4-(6-Ethyl-thieno[2,3-d]pyrimidin-4-yl)-piperazin-1-yl]-3-thiophen-3-yl-propenone] | + (>20 micromolar)
29 | CCc1cc2c(N3CCN(C(=O)C#Cc4ccccc4)CC3)ncnc2s1 [Example 332, 1-[4-(6-Ethyl-thieno[2,3-d]pyrimidin-4-yl)-piperazin-1-yl]-3-phenyl-propynone] | ++ (10–20 micromolar)
30 | CCc1cc2c(N3CCN(C(=O)c4snnc4-c4ccccc4)CC3)ncnc2s1 [Example 348, [4-(6-Ethyl-thieno[2,3-d]pyrimidin-4-yl)-piperazin-1-yl]-(4-phenyl-[1,2,3]-thiadiazol-5-yl)-methanone] | + (>20 micromolar)
